Measured values: patent US8772498B2, “Alkylamine-substituted dicyanopyridine and amino acid ester prodrugs thereof” (Bayer Intellectual Property GmbH, priority 2009, dated 2014)
Structures can show the parent of a compound that is named as a salt.

Experiments:
[1] = Determination of the solubility in 5% strength aqueous dextrose solution; type: physicochemical; details: for solubility at 24 h: saline or isotonic, thermodynamic from solid, room temperature
Procedure: B-8. Determination of Solubility, Stability and Liberation Behavior a) Determination of the Solubility:
The test substance is suspended in 5% strength aqueous dextrose solution. This suspension is shaken at room temperature for 24 h. After ultracentrifugation at 224 000 g for 30 min, the supernatant is diluted with DMSO and analyzed by HPLC. A two-point calibration plot of the test compound in DMSO is used for quantification.
Agilent 1100 with DAD (G1315A), quat. pump (G1311A), autosampler CTC HTS PAL, degasser (G1322A) and column thermostat (G1316A); column: Phenomenex Gemini C18, 5 μm, 50 mm×2 mm; temperature: 40° C.; eluent A: water/phosphoric acid pH 2; eluent B: acetonitrile; flow rate: 0.7 ml/min; gradient: 0-0.5 min 85% A, 15% B; ramp: 0.5-3 min 10% A, 90% B; 3-3.5 min 10% A, 90% B; ramp: 3.5-4 min 85% A, 15% B; 4-5 min 85% A, 15% B.
Agilent 1100 with DAD (G1315A), quat. pump (G1311A), autosampler CTC HTS PAL, degasser (G1322A) and column thermostat (G1316A); column: VDSoptilab Kromasil 100 C18, 3.5 μm, 60 mm×2.1 mm; temperature: 30° C.; eluent A: water+5 ml perchloric acid/I; eluent B: acetonitrile; flow rate: 0.75 ml/min; gradient: 0-0.5 min 98% A, 2% B; ramp: 0.5-4.5 min 10% A, 90% B; 4.5-6 min 10% A, 90% B; ramp: 6.5-6.7 min 98% A, 2% B; 6.7-7.5 min 98% A, 2% B.

[2] = Stability in buffer at various pH values; type: physicochemical
Procedure: b) Stability in Buffer at Various pH Values:
0.3 mg of the test substance is weighed into a 2 ml HPLC vial and 0.5 ml of acetonitrile or acetonitrile/DMSO (9:1) is added. The substance is dissolved by putting the sample vessel in an ultrasonic bath for about 10 seconds. Then 0.5 ml of the respective (buffer) solution is added, and the sample is again treated in the ultrasonic bath.
(Buffer) solutions employed:
pH 4: 1 liter of Millipore water is adjusted to pH 4.0 with 1 N hydrochloric acid;
pH 7.4: 90.0 g of sodium chloride, 13.61 g of potassium dihydrogen phosphate and 83.35 g of 1 N sodium hydroxide solution are made up to 1 liter with water; this solution is then further diluted 1:10 with Millipore water.
5 μl portions of the test solution are analyzed by HPLC for their content of unchanged test substance, and of active substance (A) produced, every hour over a period of 24 hours at 37° C. The percentage areas of the appropriate peaks are used for quantification.
HPLC method for Examples 41 and 44:
(§1) Agilent 1100 with DAD (G1315B), binary pump (G1312A), autosampler (G1329A), column oven (G1316A), thermostat (G1330B); column: Kromasil 100 C18, 250 mm×4 mm, 5 μm; column temperature: 30° C.; mobile phase A: water+5 ml of perchloric acid/liter, eluent B: acetonitrile; gradient: 0 min 90% A→5.0 min 40% A→18.0 min 10% A→19.0 min 10% A→21.0 min 90% A→23.0 min 90% A; flow rate: 2.0 ml/min; UV detection: 288 nm.
HPLC Method for Examples 50 and 59:
as §1, with “125” for “250”, “60% A→7.0 min 60% A→10.0” for “40% A→18.0”, “A→12.0” for “A→19.0”, “A→14.0” for “A→21.0”, “A→16.0” for “A→23.0”, “294” for “288”
HPLC Method for Example 54:
as §1, with “(G1314A),” for “(G1315B),”, “(G1330A);” for “(G1330B);”
The ratios of the peak areas (F) at the respective time points in relation to the peak areas at the starting time are shown in Table 2 for representative exemplary embodiments: […]

[3] = target: T1, adenosine A2b receptor (Homo sapiens, UniProt P29275); experiment: Indirect determination of adenosine agonism by gene expression (luciferase), A2b cells; type: cell-based; details: CHO cells, luciferase readout
T1 construct: expressed in transfected cells; host or cells: CHO (Chinese Hamster Ovary)
T1 sequence (P29275 1-332): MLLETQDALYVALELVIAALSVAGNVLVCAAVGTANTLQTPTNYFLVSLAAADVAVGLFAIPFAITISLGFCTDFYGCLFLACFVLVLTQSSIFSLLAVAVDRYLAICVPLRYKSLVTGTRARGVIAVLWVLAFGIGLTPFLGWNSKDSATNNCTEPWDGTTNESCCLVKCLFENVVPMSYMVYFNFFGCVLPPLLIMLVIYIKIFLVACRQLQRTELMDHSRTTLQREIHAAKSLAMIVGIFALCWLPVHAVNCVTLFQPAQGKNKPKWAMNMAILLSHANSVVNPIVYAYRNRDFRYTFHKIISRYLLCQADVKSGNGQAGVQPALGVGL
Excerpt: (§2) B-1. Indirect Determination of the Adenosine Agonism by Way of Gene Expression
(§3) Cells of the CHO (Chinese Hamster Ovary) permanent cell line are transfected stably with the cDNA for the adenosine receptor subtypes A1, A2a and A2b. The adenosine A1 receptors are coupled to the adenylate cyclase by way of G, proteins, while the adenosine A2a and A2b receptors are coupled by way of Gs proteins. In correspondence with this, the formation of cAMP in the cell is inhibited or stimulated, respectively. After that, expression of the luciferase is modulated by way of a cAMP-dependent promoter. The luciferase test is optimized, with the aim of high sensitivity and reproducibility, low variance and good suitability for implementation on a robot system, by varying several test parameters, such as cell density, duration of the growth phase and the test incubation, forskolin concentration and medium composition. The following test protocol is used for pharmacologically characterizing cells and for the robot-assisted substance screening:
(§4) The stock cultures are grown, at 37° C. and under 5% CO2, in DMEM/F12 medium containing 10% FCS (fetal calf serum) and in each case split 1:10 after 2-3 days. The test cultures are seeded in 384-well plates with 2000 cells per well and grown at 37° C. for approx. 48 hours. The medium is then replaced with a physiological sodium chloride solution (130 mM sodium chloride, 5 mM potassium chloride, 2 mM calcium chloride, 20 mM HEPES, 1 mM magnesium chloride hexahydrate, 5 mM sodium bicarbonate, pH 7.4). The substances to be tested, which are dissolved in DMSO, are pipetted into the test cultures (maximum final concentration of DMSO in the test mixture: 0.5%) in a dilution series of from 5×10^−11 M to 3×10^−6 M (final concentration). 10 minutes later, forskolin is added to the A1 cells and all the cultures are subsequently incubated at 37° C. for four hours. After that, 35 μl of a solution which is composed of 50% lysis reagent (30 mM disodium hydrogenphosphate, 10% glycerol, 3% TritonX100, 25 mM TrisHCl, 2 mM dithiotreitol (DTT), pH 7.8) and 50% luciferase substrate solution (2.5 mM ATP, 0.5 mM luciferin, 0.1 mM coenzyme A, 10 mM tricine, 1.35 mM magnesium sulfate, 15 mM DTT, pH 7.8) are added to the test cultures, which are shaken for approx. 1 minute and the luciferase activity is measured using a camera system. The ECK values are determined, i.e., the concentrations at which 50% of the luciferase answer is inhibited in the case of the A1 cell, and, respectively, 50% of the maximum stimulation with the corresponding substance is achieved in the case of the A2b and A2a cells.
(§5) Table 1 below lists the ECK values of representative working examples for the receptor stimulation on adenosine A1, A2a and A2b receptor subtypes: […]

[4] = target: T2, adenosine A1 receptor (Homo sapiens, UniProt P30542); experiment: Indirect determination of adenosine agonism by gene expression (luciferase), A1 cells; type: cell-based; details: CHO cells, luciferase readout, 1 μM forskolin
T2 construct: expressed in transfected cells; host or cells: CHO (Chinese Hamster Ovary)
T2 sequence (P30542 1-326): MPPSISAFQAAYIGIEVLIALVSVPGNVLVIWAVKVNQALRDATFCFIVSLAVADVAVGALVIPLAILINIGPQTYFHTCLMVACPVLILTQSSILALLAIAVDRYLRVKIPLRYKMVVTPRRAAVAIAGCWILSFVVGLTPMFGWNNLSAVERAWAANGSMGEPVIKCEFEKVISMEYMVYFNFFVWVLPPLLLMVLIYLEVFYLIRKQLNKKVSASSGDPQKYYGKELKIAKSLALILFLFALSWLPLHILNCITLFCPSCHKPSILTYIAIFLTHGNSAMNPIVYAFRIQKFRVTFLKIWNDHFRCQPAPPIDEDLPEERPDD
Excerpt: as §2, §3, §4, §5

Row | SMILES | solubility at 24 h [1] [µg/mL] | % test substance after 4 h (F(t = 4 h) × 100/F(t = 0 h)) ([2]; pH 4, 37° C.) [%] | % test substance after 24 h (F(t = 24 h) × 100/F(t = 0 h)) ([2]; pH 4, 37° C.) [%] | % test substance after 4 h (F(t = 4 h) × 100/F(t = 0 h)) ([2]; pH 7.4, 37° C.) [%] | % test substance after 24 h (F(t = 24 h) × 100/F(t = 0 h)) ([2]; pH 7.4, 37° C.) [%] | also measured
1 | CCCNc1nc(SCc2csc(-c3ccc(Cl)cc3)n2)c(C#N)c(-c2ccc(OCCO)cc2)c1C#N [Example 12] | – | – | – | – | – | Solubility of the active substance ([1]; result in words): below the detection limit
2 | C[C@H](NC(=O)[C@@H](N)CCCN)C(=O)OCCOc1ccc(-c2c(C#N)c(SCc3csc(-c4ccc(Cl)cc4)n3)nc(N3CCCC3)c2C#N)cc1 [Example 58, 2-{4-(2-({(2-(4-Chlorophenyl)-1,3-thiazol-4-yl)methyl}sulfanyl)-3,5-dicyano-6-(pyrrolidin-1-yl)pyridin-4-yl)phenoxy}ethyl L-ornithyl-L-alaninate bis(trifluoroacetate)] | 470 | – | – | – | – | –
3 | CNc1nc(SCc2csc(-c3ccc(Cl)cc3)n2)c(C#N)c(-c2ccc(OCCOC(=O)[C@@H](N)CCCN)cc2)c1C#N [Example 52, 2-{4-(2-({(2-(4-Chlorophenyl)-1,3-thiazol-4-yl)methyl}sulfanyl)-3,5-dicyano-6-(methylamino)pyridin-4-yl)phenoxy}ethyl L-ornithinate bis(trifluoroacetate)] | 280 | – | – | – | – | –
4 | N#Cc1c(SCc2csc(-c3ccc(Cl)cc3)n2)nc(N2CCCC2)c(C#N)c1-c1ccc(OCCOC(=O)[C@@H](N)CCCN)cc1 [Example 59, 2-{4-(2-({(2-(4-Chlorophenyl)-1,3-thiazol-4-yl)methyl}sulfanyl)-3,5-dicyano-6-(pyrrolidin-1-yl)pyridin-4-yl)phenoxy}ethyl L-ornithinate bis(trifluoroacetate)] | – | 99 | 95 | 0 | 0 | –
5 | N#Cc1c(SCc2csc(-c3ccc(Cl)cc3)n2)nc(N2CCOCC2)c(C#N)c1-c1ccc(OCCO)cc1 [Example 17, 2-({(2-(4-chlorophenyl)-1,3-thiazol-4-yl)methyl}sulfanyl)-4-(4-(2-hydroxyethoxy)phenyl)-6-(morpholin-4-yl)pyridine-3,5-dicarbonitrile] | – | – | – | – | – | EC50 [3]: 55 nM; EC50 [4]: 0.3 nM
6 | CCCNc1nc(SCc2csc(-c3ccc(Cl)cc3)n2)c(C#N)c(-c2ccc(OCCOC(=O)[C@H](C)NC(=O)[C@@H](N)CCCCN)cc2)c1C#N [Example 54, 2-{4-(2-({(2-(4-Chlorophenyl)-1,3-thiazol-4-yl)methyl}sulfanyl)-3,5-dicyano-6-(propylamino)pyridin-4-yl)phenoxy}ethyl L-lysyl-L-alaninate bis(trifluoroacetate)] | 640 | 98 | 97 | 29 | 0 | –

More lines, main results first:

Row | solubility at 24 h [1] [µg/mL] | % test substance after 4 h (F(t = 4 h) × 100/F(t = 0 h)) ([2]; pH 4, 37° C.) [%] | % test substance after 24 h (F(t = 24 h) × 100/F(t = 0 h)) ([2]; pH 4, 37° C.) [%] | % test substance after 4 h (F(t = 4 h) × 100/F(t = 0 h)) ([2]; pH 7.4, 37° C.) [%] | % test substance after 24 h (F(t = 24 h) × 100/F(t = 0 h)) ([2]; pH 7.4, 37° C.) [%] | SMILES | also measured
7 | – | 99 | 99 | 94 | 78 | N#Cc1c(SCc2csc(-c3ccc(Cl)cc3)n2)nc(N2CCCC2)c(C#N)c1-c1ccc(OCCOC(=O)CCN)cc1 [Example 50, 2-{4-(2-({(2-(4-Chlorophenyl)-1,3-thiazol-4-yl)methyl}sulfanyl)-3,5-dicyano-6-(pyrrolidin-1-yl)pyridin-4-yl)phenoxy}ethyl beta-alaninate trifluoroacetate] | –
8 | 540 | – | – | – | – | CCCNc1nc(SCc2csc(-c3ccc(Cl)cc3)n2)c(C#N)c(-c2ccc(OCCOC(=O)[C@H](C)NC(=O)[C@H](C)N)cc2)c1C#N [Example 51, 2-{4-(2-({(2-(4-Chlorophenyl)-1,3-thiazol-4-yl)methyl}sulfanyl)-3,5-dicyano-6-(propylamino)pyridin-4-yl)phenoxy}ethyl L-alanyl-L-alaninate trifluoroacetate] | –
